From patent publication US20260284189A1, “TREATMENT OF NON-SMALL CELL LUNG CANCER” (ASTRAZENECA AB, priority 2023, published 2026)

Legend:
[1] = test system: resectable non-small cell lung cancer (R-NSCLC); experiment: AEGEAN phase III: objective response prior to surgery, BICR (RECIST v1.1); format: in vivo, human; details: mITT N = 366
Procedure: Tumors were evaluated per RECIST v1.1 using imaging collected at the following timepoints: baseline (≤28 days before randomization); after completing neoadjuvant treatment and before surgery; 5 weeks (±2 weeks) after surgery and before starting adjuvant treatment; every 12 weeks (±1 week) until Week 48 after surgery; every 24 weeks (±2 weeks) until Week 192 (i.e., ~4 years post-surgery); and every 48 weeks (±2 weeks) thereafter until local or distant recurrence, consent withdrawal, or death.
Efficacy assessments were performed and determined by pathology review or a BICR using RECIST 1.1 assessment, as applicable, including EFS (mITT and PD-L1 TC≥1% analysis set), pCR (mITT and PD-L1 TC≥1% analysis set), mPR (mITT and PD-L1 TC≥1% analysis set), DFS (modified resected set and PD-L1 TC≥1% resected set), and OS (mITT and PD-L1 TC≥1% analysis set). The EFS event of PD that precludes surgery or PD discovered during surgery that prevents completion of surgery will be determined by the Investigator.

[2] = test system: resectable non-small cell lung cancer (R-NSCLC); experiment: AEGEAN phase III: event-free survival (EFS) by blinded independent central review; format: in vivo, human
From the text: As used herein, the terms “event-free survival” or “EFS” refer to the time from randomization to the first of the following: a) local or distant recurrence as determined by BICR using RECIST 1.1 assessments; b) death due to any cause (event date is the date of death); c) PD that precludes surgery (event date is the date of this determination) or PD discovered and reported by the Investigator upon attempting surgery that prevents completion of surgery (event date is the date of the first attempt at surgery). Event-free survival can be analyzed using the log-rank test based on blinded independent central review (BICR) assessment using RECIST v1.1 and pathology review stratified by disease stage (Stage II versus Stage III) and by PD-L1 expression status (<1% versus >1%) on the mITT. The p-value can be obtained from the stratified log-rank test using the Efron (Hertz-Picciotto and Rockhill “Validity and efficiency of approximation methods for tied survival times in Cox regression.” Biometrics 1997; 53(3):1151-6.) approach for handling ties.
The AEGEAN (NCT03800134) study described herein is a phase III, double-blind, placebo-controlled, multi-center international study of assessed perioperative (i.e. neoadjuvant and adjuvant) durvalumab plus neoadjuvant chemotherapy for the treatment of patients with resectable stage II and stage III non-small cell lung cancer (R-NSCLC).
The study enrolled approximately 1300 patients and randomized approximately 800 eligible patients. Eligible patients had newly diagnosed, previously untreated, histologically or cytologically documented, resectable NSCLC (stage IIA to select [N2] stage IIIB according to the American Joint Committee on Cancer [AJCC] Cancer Staging Manual, version 8). Patients were randomized in a 1:1 ratio to receive either durvalumab plus a platinum-based chemotherapy before surgery followed by durvalumab post-surgery (Arm 1; a platinum-based chemotherapy plus durvalumab intravenously every three weeks (four cycles) before surgery, followed by durvalumab intravenously every four weeks (12 cycles)) or placebo plus a platinum-based chemotherapy before surgery followed by placebo post-surgery (Arm 2; a platinum-based chemotherapy plus placebo intravenously every three weeks (four cycles) before surgery, followed by placebo intravenously every four weeks (12 cycles)). Patients were also stratified by disease stage (Stage II versus Stage III) and by PD-L1 expression status (<1% versus ≥1%).
The two primary efficacy endpoints in this study were event-free survival (EFS; per blinded independent central review [BICR]) and pathological complete response (pCR; evaluated centrally). […]
Comparisons between the study arms were analyzed using stratified log-rank tests. […]

[3] = mITT subgroup, durvalumab versus placebo, unstratified Cox model

Durvalumab: antibody that selectively binds PD-L1 and blocks binding of PD-L1 to PD-1 and CD80; arm given with platinum-based chemotherapy before surgery
Complete response: number of patients [1]: 4
Complete response: patients [1]: (1.1) %
Not evaluable (objective response): number of patients [1]: 25
Not evaluable (objective response): patients [1]: (6.8) %
Objective response rate [1]: (56.3) %
Objective response rate: number of patients [1]: 206
Partial response: number of patients [1]: 202
Partial response: patients [1]: (55.2) %
Progression: number of patients [1]: 11
Progression: patients [1]: (3.0) %
Stable disease: number of patients [1]: 124
Stable disease: patients [1]: (33.9) %
EFS stratified hazard ratio, durvalumab arm versus placebo arm ([2]; mITT N=740, BICR, first interim analysis, 31.9% maturity, data cut-off Nov. 10, 2022): 0.68
EFS HR, planned neoadjuvant platinum agent carboplatin [2, 3]: 0.73
EFS HR, planned neoadjuvant platinum agent cisplatin [2, 3]: 0.59
median EFS ([2]; mITT, BICR, first interim analysis, 31.9% maturity): not reached
